Measured values from PubChem BioAssay (NCI).
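Each compound was tested at five concentrations against cells in 96-well plates for 48 hours. The concentration for 50% growth inhibition is given as GI50. TGI is the concentration that stops growth completely.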

Legend:
Test in all cases: NCI-60 cell line screen, 48 h
ACHN renal = system: ACHN renal
NCI-H522 lung = system: NCI-H522 lung
CAKI-1 renal = system: CAKI-1 renal
HCC-2998 colon = system: HCC-2998 colon
OVCAR-4 ovarian = system: OVCAR-4 ovarian
NCI-H460 lung = system: NCI-H460 lung
HCT-116 colon = system: HCT-116 colon
MDA-MB-435 = system: MDA-MB-435
MOLT-4 leukemia = system: MOLT-4 leukemia
M14 melanoma = system: M14 melanoma

| Compound | GI50 (ACHN renal) [µM] | TGI (ACHN renal) [µM] | GI50 (NCI-H522 lung) [µM] | TGI (NCI-H522 lung) [µM] | GI50 (CAKI-1 renal) [µM] | TGI (CAKI-1 renal) [µM] | GI50 (HCC-2998 colon) [µM] | TGI (HCC-2998 colon) [µM] | GI50 (OVCAR-4 ovarian) [µM] | TGI (OVCAR-4 ovarian) [µM] | GI50 (NCI-H460 lung) [µM] | TGI (NCI-H460 lung) [µM] | GI50 (HCT-116 colon) [µM] | TGI (HCT-116 colon) [µM] | GI50 (MDA-MB-435) [µM] | TGI (MDA-MB-435) [µM] | GI50 (MOLT-4 leukemia) [µM] | TGI (MOLT-4 leukemia) [µM] | GI50 (M14 melanoma) [µM] | TGI (M14 melanoma) [µM] |
| --- | --- | --- | --- | --- | --- | --- | --- | --- | --- | --- | --- | --- | --- | --- | --- | --- | --- | --- | --- | --- |
| O=C(O)c1cn(C2CC2)c2cc(N3CCN(C(=O)Nc4nc(-c5ccccc5)cs4)CC3)c(F)cc2c1=O | 0.894 | 7.54 | 1.39 | 6.26 | 3.59 | > 100 | 2.24 | > 100 | 2.93 | > 100 | 0.445 | > 100 | 0.647 | > 100 | 1.16 | > 100 | 1.61 | 11.5 | 2.06 | > 100 |
| S=c1[nH]nc(Cc2ccccc2)c(=S)[nH]1 |  |  |  | > 100 |  | > 100 |  | > 71.8 |  | > 100 |  | > 93.7 |  | > 100 |  | > 100 |  | > 100 |  | > 100 |
| CCOc1cc(Br)c(C(C)NC(=O)c2cccc(OC)c2)cc1OCC (stereo unspecified) | 21.1 | > 100 | 6.83 | 54.4 | 13.3 | > 100 | 33.7 | > 100 | 13.2 | > 93.5 | 6.02 | > 81.5 | 4.39 | > 100 | 2.16 | 6.1 | 5.64 | > 100 | 4.38 | > 100 |
| O=C1C2=C(c3ccccc31)C(c1ccccc1)N1C(=O)CSC1=N2 (stereo unspecified) |  | > 100 |  | > 79.8 |  | > 100 |  | > 100 |  | > 100 |  | > 100 |  | > 100 |  | 37.3 |  | > 100 |  | > 96.6 |
| Cc1cc(S(=O)(=O)/N=C/N(C)C)c(SC(=O)c2ccc(Cl)cc2)cc1Cl | 22.7 | 47.1 | 47.9 | > 100 | 36.6 | 92.3 | 17.9 | 38.2 | 60.1 | > 100 | 56.5 | > 100 | 24.1 | 59.3 | 25.1 | 70.4 | 61 | > 100 | 89.8 | > 100 |
| COc1cc(OC)c2nccc(NCCCN(C)C)c2c1[N+](=O)[O-] |  | > 100 |  | > 100 |  | > 100 |  | > 100 |  | > 100 |  | > 100 |  | > 100 |  | > 100 |  | > 100 |  | > 100 |
| COc1ccc2c(c1)CC[C@@H]1[C@@H]2CC[C@]2(C)[C@@H](NC(=O)/C=C/c3ccc(O)c(O)c3)CC[C@@H]12 | 3.89 | 14.8 | 1.68 | 5.73 | 2.03 | 4.09 | 2.05 | 4.19 | 11.9 | 74.7 | 2.7 | 9.93 | 2.02 | 10.4 | 3.43 | 11.1 |  |  | 2.26 | 6.98 |
| Cc1cc(Nc2nc(-c3cccnc3)nc3ccccc23)n[nH]1 | 0.527 | > 100 | 1.69 | > 100 | 0.325 |  | 21.5 | > 100 | 2.05 | > 100 | 1.84 | > 100 | 0.494 | > 100 | 0.647 | > 100 | > 57.2 | > 100 | 2.33 | > 100 |
| COc1ccccc1C1=C(Nc2ccccc2)C(=O)NC1=O | > 25 | > 25 | > 25 | > 25 | > 25 | > 25 | > 25 | > 25 | > 25 | > 25 | > 25 | > 25 | 24.5 | > 25 | > 25 | > 25 | > 25 | > 25 | > 25 | > 25 |
| CC(=O)N1N=C(c2ccc(Nc3ccnc4cc(Cl)ccc34)cc2)CC1c1ccc(Cl)cc1 (stereo unspecified) | 3.96 | > 100 | 5.05 | > 100 | > 100 | > 100 | > 100 | > 100 | 6.92 | > 100 | > 100 | > 100 | 38.8 | > 100 | 0.566 | > 100 | 2.42 | > 100 | 5.24 | > 100 |
| COc1ccc(/C=c2\sc3n(c2=O)C2C(NN=3)N(C)C(=O)N2C)cc1 (stereo unspecified) | 1.53 | > 100 | 0.877 | > 100 | 0.563 | > 100 | 1.5 | > 100 | > 100 | > 100 | 0.933 | > 100 | 0.483 | > 100 | 0.2 | 0.759 | 1.24 | > 100 | 0.344 | 5.17 |
| Nc1nc(N)c(C=Nc2ccc(Br)cc2)c(Nc2ccc(Br)cc2)n1 | 8.96 | 28 | 8.2 | 33.2 | 3.45 | 18.7 | 3.89 | 14 | 10.6 | 25 | 4.39 | 20.1 | 6.46 | 19.2 | 10.5 | 27.6 | 10.7 | 28.5 | 9.59 | 21.4 |
| CC(=O)OC1=CC2=CC[C@H]3[C@@H]4CCC(=O)[C@@]4(C)CC(=O)[C@]3(S)[C@@]2(C)CC1 |  | > 100 |  | 63 |  | > 100 |  | 65.1 |  | > 100 |  | 69.8 |  | 49.3 |  | > 100 |  | 37.4 |  | > 100 |
| COc1ccc(S(=O)(=O)NC2=NCCN2C(=S)SN2CCn3c2nsc3=S)cc1 | 12.9 | 26 | 9.62 | 35 | 17.9 | 62.8 | 21.4 | 37.9 | 18 | 44.7 | 17.1 | 44.2 | 14.4 | 27.9 | 14.8 | 43.9 | 29.4 | > 100 | 14.9 | 31 |
